# Results taken from patent publication US20170022258A1, “PEPTIDES FOR USE IN THE TREATMENT OF IL-1 RELATED DISEASES AND CONDITIONS” (C4M PHARMACEUTICALS PTY LTD., priority 2011, published 2017).
# Non-standard residues stand in square brackets, D forms with d. Residues, ends and D or L forms follow the SMILES beside them. No end group written: not given here.
# T1: IL-1 receptor (Homo sapiens, UniProt P14778)
# T1 construct: confluent human monocytes, which express the IL-1 receptor; endogenous in cells; host or cells: human monocytes
# T1 sequence (P14778 18-569): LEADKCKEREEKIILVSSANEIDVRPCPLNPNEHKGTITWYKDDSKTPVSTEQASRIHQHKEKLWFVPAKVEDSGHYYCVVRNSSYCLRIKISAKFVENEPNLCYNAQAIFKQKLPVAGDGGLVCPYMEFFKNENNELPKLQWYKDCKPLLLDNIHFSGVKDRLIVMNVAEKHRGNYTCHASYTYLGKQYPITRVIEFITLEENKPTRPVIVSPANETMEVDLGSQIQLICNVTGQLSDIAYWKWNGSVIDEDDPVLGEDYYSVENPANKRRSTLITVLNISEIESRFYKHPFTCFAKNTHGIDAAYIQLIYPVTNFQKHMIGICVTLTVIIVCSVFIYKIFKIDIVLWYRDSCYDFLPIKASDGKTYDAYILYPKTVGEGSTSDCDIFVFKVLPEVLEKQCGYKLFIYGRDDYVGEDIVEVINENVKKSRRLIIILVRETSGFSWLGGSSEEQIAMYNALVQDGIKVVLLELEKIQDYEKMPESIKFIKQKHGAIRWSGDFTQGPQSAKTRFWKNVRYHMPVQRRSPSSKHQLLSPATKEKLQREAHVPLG
# T2: IL-1 receptor (IL-1R) expressed on human monocytes (human, UniProt P14778 18-569)
# T2 sequence (looked up): T1 sequence (P14778 18-569)
# Experiments:
# IL-1 receptor = target: T1, IL-1 receptor; test: Radioligand competition binding assay (125I-labeled IL-1α) on human monocytes; settings: IL-1 binding antagonism on human monocytes; average of three measurements and standard error
# Description: Radioligand competition binding assays were performed in 96-well plates containing confluent human monocytes, which express the IL-1 receptor. Wells were washed three times with binding buffer, and binding buffer was placed in each well. Peptides were resuspended in dimethyl sulfoxide at 20 mM and diluted in binding buffer to the desired starting concentration. Using a Beckman robotic system, five 3-fold dilutions were prepared, and peptide solution was transferred to duplicate receptor-containing wells. To each well, radioactive ^125Iodine-labeled IL-Ia (Amersham) was added to a final concentration of 40 pM, and the plates were placed on a shaking platform at 4° C. for 2 hr. Plates were washed with PBS using a plate washer, and bound ^125I-labeled IL-la was eluted for 10 min with 0.1 M NaOH and counted in a gamma counter. IC50 values were determined by fitting the data to a two-parameter logistic equation. In all cases, nonspecific binding was determined by the addition of 3 μM of recombinant IL-Ia.
# [1] = system: IL-1 stimulation of IL-8 in human skin fibroblasts; test: Inhibition of IL-1 induced IL-8 in human fibroblasts; assay type: cell-based; settings: inhibition of IL-1 stimulation of IL-8 in human skin fibroblasts; average of three measurements and standard error; read-out: Binding (IC50 nM)
# Description: Inhibition of IL-1 induced IL-8 in human fibroblasts was determined using normal human dermal fibroblast cells cultured in DMEM with 10% fetal calf serum in 48-well plates.
# Twenty-four hours before initiation of the experiment, the medium was changed to DMEM with 0.2% fetal calf serum. Each peptide was added to confluent cells, which were then pulsed for 30 min with rIL-I,B (which was obtained from R & D Systems) at 50 pg/ml. The cells were washed four times with PBS, and fresh DMEM/0.2% fetal calf serum was added to each well. After 5 hr of incubation, the culture media were collected and analyzed by ELISA for IL-8 (which was obtained from R & D Systems). Maximal activation, with IL-1 only, was 2530±13 pg/ml of IL-8. Nonspecific activation, determined in the presence of 1000-fold excess IL-1Ra, was 30±9 pg/ml of IL-8 (n=3).
# [2] = target: T2, IL-1 receptor (IL-1R) expressed on …; test: cell-based or functional assay
# [3] = target: IL-1 receptor (IL-1R) expressed on human monocytes (human) (UniProt P14778); test: cell-based or functional assay
molecule,measurement,setting,value
"CC[C@H](C)[C@H](NC(=O)[C@H](CC(N)=O)NC(=O)[C@@H](NC(=O)[C@H](C)NC(=O)[C@H](CCC(=O)O)NC(=O)[C@H](CC(C)C)NC(=O)[C@H](CCC(N)=O)NC(=O)[C@H](CC(C)C)NC(C)=O)C(C)C)C(=O)N[C@H](C(=O)N[C@@H](CC(=O)O)C(=O)N[C@@H](CC(C)C)C(=O)N[C@@H](CO)C(=O)N[C@@H](CCC(=O)O)C(=O)N[C@@H](CC(N)=O)C(=O)N[C@@H](CCCNC(=N)N)C(=O)N[C@@H](CCCCN)C(=O)N[C@@H](CCC(N)=O)C(=O)N[C@@H](CC(=O)O)C(=O)N[C@@H](CCCCN)C(=O)O)[C@@H](C)O [SEQ ID NO. 11, Ac-LQLEAVNITDLSENRKQDK] (Ac-LQLEAVNITDLSENRKQDK-OH; C-terminus assumed)",IC50,IL-1 receptor,> 10000 nM
CC[C@H](C)[C@H](NC(C)=O)C(=O)N[C@@H](CC(=O)O)C(=O)N[C@H](C(=O)N[C@H](C(=O)N1CCC[C@H]1C(=O)N[C@H](C(=O)N[C@@H](CCC(=O)O)C(=O)N[C@@H](C)C(=O)N1CCC[C@H]1C(=O)N[C@@H](Cc1c[nH]cn1)C(=O)N[C@@H](C)C(=O)N[C@@H](CC(C)C)C(=O)N[C@@H](Cc1ccccc1)C(=O)N[C@@H](CC(C)C)C(=O)NCC(=O)N[C@H](C(=O)N[C@@H](Cc1c[nH]cn1)C(=O)NCC(=O)NCC(=O)N[C@@H](CCCCN)C(=O)O)[C@@H](C)CC)[C@@H](C)CC)C(C)C)C(C)C [SEQ ID NO. 9] (Ac-IDVVPIEAPHALFLGIHGGK-OH; C-terminus assumed),IC50,IL-1 receptor,> 10000 nM
"CC(=O)N[C@H](CC(C)C)C(=O)N1CCC[C@@H]1C(=O)N[C@H](CC(C)C)C(=O)N[C@H](C)C(=O)N[C@H](Cc1ccc(O)cc1)C(=O)N1CCC[C@@H]1C(=O)N[C@H](CCC(N)=O)C(=O)N[C@H](Cc1c[nH]c2ccccc12)C(=O)N[C@H](Cc1ccc(O)cc1)C(=O)N[C@H](Cc1ccc(O)cc1)C(=O)N[C@H](C)C(=O)N[C@H](CC(N)=O)C(=O)N[C@H](CO)C(=O)N[C@H](CCC(=O)O)C(=O)N[C@H](CCC(=O)O)C(=O)N[C@H](Cc1c[nH]c2ccccc12)C(=O)N[C@@H](C(=O)N[C@H](Cc1ccccc1)C(=O)O)[C@H](C)O [SEQ ID NO. 16, Ac-LPLAYPQWYYANSEEWTF] (Ac-[dL][dP][dL][dA][dY][dP][dQ][dW][dY][dY][dA][dN][dS][dE][dE][dW][dT][dF]-OH; C-terminus assumed)",IC50,[1],120 nM
"CC(=O)N[C@@H](CC(N)=O)C(=O)N[C@@H](CC(N)=O)C(=O)N[C@@H](CCC(N)=O)C(=O)N[C@@H](CC(C)C)C(=O)N[C@H](C(=O)N[C@@H](C)C(=O)NCC(=O)N[C@@H](Cc1ccc(O)cc1)C(=O)N[C@@H](CC(C)C)C(=O)N[C@@H](CCC(N)=O)C(=O)NCC(=O)N1CCC[C@H]1C(=O)N[C@@H](CC(N)=O)C(=O)N[C@H](C(=O)N[C@@H](CC(N)=O)C(=O)O)C(C)C)C(C)C [SEQ ID NO. 7, Ac-NNQLVAGYLQGPNVN] (Ac-NNQLVAGYLQGPNVN-OH; C-terminus assumed)",IC50,IL-1 receptor,> 10000 nM
"Ac-[dK][dD][dQ][dK][dR][dN][dE][dS][dL][dD][dT][dI][dN][dV][dA][dE][dL][dQ][dL] [peptide of SEQ ID NO: 12 (Ac-KDQKRNESLDTINVAELQL, D-amino acids)]","IC50, in vitro inhibition of IL-1 stimulation of IL-8 in human skin fibroblasts (rIL-1β 50 pg/ml, IL-8 ELISA)",[2],> 10000 nM
"Ac-[dL][dP][dL][dA][dY][dP][dQ][dW][dY][dY][dA][dN][dS][dE][dE][dW][dT][dF][dP][dT][dE] [peptide of SEQ ID NO: 14 (Ac-…, D-amino acids)]","IC50, in vitro inhibition of IL-1 stimulation of IL-8 in human skin fibroblasts (rIL-1β 50 pg/ml, IL-8 ELISA)",[3],11 nM
Ac-ETPFTWEESNAYYWQPYALPL (also called peptide 13) [peptide of SEQ ID NO: 13 (Ac-ETPFTWEESNAYYWQPYALPL)],"IC50, in vitro inhibition of IL-1 stimulation of IL-8 in human skin fibroblasts (rIL-1β 50 pg/ml, IL-8 ELISA)",[2],11 nM
